Laboratory results reported in patent publication US20200038418A1, “METHODS OF TREATING AUTISM SPECTRUM DISORDER USING AMINOSTEROL COMPOSITIONS” (Enterin, Inc., priority 2018, published 2020).

Experiments:
C. elegans model of PD = C. elegans model of PD in vivo; cited from earlier work
[1] = Phase 2 trial Stage 2, adverse events; assay type: in vivo, human
Method: In Stage 2, 34 patients were evaluated.

[2] = test system: patients with PD and constipation; assay: Stage 2 CNS symptoms (UPDRS, MMSE, PDHQ, BDI-II); assay type: in vivo, human; conditions: for UPDRS Part 1 (NMS) (Mean, SD) / BDI-II (Mean, SD) / PDHQ (Mean, SD): n = 34; for hallucinations and delusions improved or disappeared: during treatment, patients with hallucinations or delusions at baseline
From the text: (9) Unified Parkinson's Disease Rating Scale (UPDRS), which consists of 42 items in four subscales (Part I=Non-Motor Aspects of Experiences of Daily Living (nM-EDL) (1.1 cognitive impairment, 1.2 hallucinations and psychosis, 1.3 depressed mood, Part II=Motor Aspects of Experiences of Daily Living (M-EDL), Part III=Motor Examination, and Part IV=Motor Complications;
Exploratory end-points, in addition to constipation, included for example, (i) depression assessed using the Beck Depression Inventory (BDI-II) (Steer et al. 2000) and Unified Parkinson's Disease Rating Scale (UPDRS); (ii) cognition assessed using the Mini Mental State Examination (MMSE) (Palsteia et al., 2018), Unified Parkinson's Disease Rating Scale (UPDRS), and Trail Making Test (TMT); (iii) sleep and REM-behavior disorder (RBD) using a daily sleep diary, I-Button Temperature Assessment, a REM sleep behavior disorder (RBD) questionnaire (RBDQ) (Stiasny-Kolster et al. 2007), and the UPDRS; (iv) hallucinations assessed using the PD hallucinations questionnaire (PDHQ) (Papapetropoulos et al. 2008), the UPDRS, and direct questioning; (v) fatigue using the Parkinson's Disease Fatigue Scale (PFS-16) and the UPDRS; (vi) motor functions using the UPDRS; and (vii) non-motor functions using the UPDRS.
Assessments were made at baseline and at the end of the fixed dose and washout periods. Circadian system status was evaluated by continuously monitoring wrist skin temperature (Thermochron iButton DS1921H; Maxim, Dallas) following published procedures (Sarabia et al. 2008).
An exploratory analysis was done with respect to the sleep data, the body temperature data, mood, fatigue, hallucinations, cognition and other motor and non-motor symptoms of PD. Continuous measurements within a subject were compared with a paired t-test and continuous measurements between subject groups were compared with a two-group t-test. Categorical data were compared with a chi-squared test or a Fisher's exact test if the expected cell counts are too small for a chi-squared test.

[3] = Stage 2 (34 dosed), daily oral dosing
[4] = Stage 2 (34 dosed), daily oral dosing, unrelated to ENT-01
[5] = Stage 2, fixed dose (during treatment)
[6] = Stage 2, fixed dose (during treatment), listed as Squalamine (ENT-01)
[7] = Stage 2, wash-out, listed as Squalamine (ENT-01)

For `CC(C)[C@@H](CC[C@@H](C)[C@H]1CC[C@H]2[C@@H]3[C@H](O)C[C@H]4C[C@@H](NCCCNCCCCN)CC[C@]4(C)[C@H]3CC[C@]12C)OS(=O)(=O)O` (single isomer, unassigned) [squalamine (ENT-01), squalamine], the “formation of aggregates of αS” value (C. elegans model of PD) is given as “inhibit the formation of aggregates of αS”, the “Abdominal pain, Mild” value [1, 3] is given as 4(11.7) n, % and the “Abdominal pain, Moderate” value [1, 3] is given as 2(5.8) n, %. The “Blood in urine, Moderate” value [1, 3] was 0 n, %, the “Diarrhea, Mild” value [1, 3] was 12(35) n, % and the “Diarrhea, Moderate” value [1, 3] was 2(5.8) n, %. The “Diarrhea, Severe” value [1, 3] was 1(2.9) n, %, the “Difficulty falling asleep, Mild” value [1, 3] was 1(3) n, % and the “Difficulty falling asleep, Moderate” value [1, 3] was 0 n, %. The “Dizziness, Mild” value [1, 3] was 7(20.5) n, %, the “Dizziness, Moderate” value [1, 3] was 1(2.9) n, % and the “Eye infection, Mild” value [1, 3] was 1(3) n, %. The “Eye infection, Moderate” value [1, 3] was 0 n, %, the “Flatulence, Mild” value [1, 3] was 1(3) n, % and the “Flatulence, Moderate” value [1, 3] was 0 n, %. For the same compound, the “Headache, Mild” value [1, 3] was 3(8.8) n, %, the “Headache, Moderate” value [1, 3] was 0 n, % and the “Increased urinary frequency, Mild” value [1, 3] was 2(5.8) n, %. The “Increased urinary frequency, Moderate” value [1, 3] was 0 n, %, the “Loss of appetite, Moderate” value [1, 3] was 0 n, % and the “Nausea, Mild” value [1, 3] was 18(52) n, %. The “Nausea, Moderate” value [1, 3] was 1(2.9) n, %, the “Skin lesions-rash, Mild” value [1, 3] was 3(8.8) n, % and the “Skin lesions-rash, Moderate” value [1, 3] was 0 n, %. For the same compound, the “Urinary retention, Mild” value [1, 3] was 1(3) n, %, the “Urinary retention, Moderate” value [1, 3] was 0 n, % and the “Urinary tract infection, Mild” value [1, 3] was 1(3) n, %. The “Urinary tract infection, Moderate” value [1, 3] was 2(5.8) n, %, the “Vomiting, Mild” value [1, 3] was 2(5.8) n, % and the “Vomiting, Moderate” value [1, 3] was 0 n, %. The “Worsening acid reflux, Mild” value [1, 3] was 4(11.7) n, %, the “Worsening acid reflux, Moderate” value [1, 3] was 0 n, % and the “Worsening hemorrhoid, Mild” value [1, 3] was 1(3) n, %. The “Worsening hemorrhoid, Moderate” value [1, 3] was 0 n, %, the “Blood in urine, Mild” value [1, 4] was 0 n, % and the “Loss of appetite, Mild” value [1, 4] was 0 n, %. The “Lower GI bleed, Severe” value ([1]; Stage 2, daily oral dosing, colonic diverticulosis, polyp, patient on aspirin, Plavix and naproxen, unrelated to ENT-01) was 1(2.5) n, %, the “time hallucinations and delusions did not return following discontinuation” value ([2]; 1 patient) was 4 weeks and the “UPDRS Part 1 (NMS) (Mean, SD)” value ([2]; Stage 2, end of fixed dose) was 10.6 (6.18)). The “UPDRS Part 1 (NMS) (Mean, SD)” value ([2]; Stage 2, end of wash-out) was 9.5 (5.27), the “UPDRS Part 1 (NMS) (Mean, SD)” value ([2]; Stage 2, end of wash-out, listed as aminosterol) was 9.5 and the “BDI-II (Mean, SD)” value [2, 5] was 9.9. The “PDHQ (Mean, SD)” value [2, 5] was 1.8, the “BDI-II (Mean, SD)” value [2, 6] was 9.9 (6.45) and the “PDHQ (Mean, SD)” value [2, 6] was 1.8 (3.34). For the same compound, the “BDI-II (Mean, SD)” value ([2]; Stage 2, fixed dose (during treatment), listed as aminosterol) was 9.9, the “BDI-II (Mean, SD)” value ([2]; Stage 2, wash-out) was 8.7 and the “PDHQ (Mean, SD)” value ([2]; Stage 2, wash-out) was 0.9. The “BDI-II (Mean, SD)” value [2, 7] was 8.7 (5.19), the “PDHQ (Mean, SD)” value [2, 7] was 0.9 (2.33) and the “BDI-II (Mean, SD)” value ([2]; Stage 2, wash-out, listed as aminosterol) was 8.7. The “time hallucinations and delusions did not return following discontinuation” value ([2]; another patient) was 2 weeks, the “hallucinations and delusions improved or disappeared” value [2] was 5 of 6 and the “hallucinations and delusions improved or disappeared” value ([2]; listed as ENT-01) was “five”.
